Source: BindingDB's records for doi:10.7270/Q2ZC817P (The Scripps Research Institute Molecular Screening Center, 2007)
Counter-ions that a name gives are not always drawn.

Biological target: Sphingosine 1-phosphate receptor 1 (Homo sapiens, UniProt P21453)
Test: potentiators of S1P1 agonist response, dose response, cell-based, potentiator mode, 60K MLSMR set (AID 466)
Details: not given

Sphingosine 1-phosphate receptor 1, sequence (P21453 whole entry): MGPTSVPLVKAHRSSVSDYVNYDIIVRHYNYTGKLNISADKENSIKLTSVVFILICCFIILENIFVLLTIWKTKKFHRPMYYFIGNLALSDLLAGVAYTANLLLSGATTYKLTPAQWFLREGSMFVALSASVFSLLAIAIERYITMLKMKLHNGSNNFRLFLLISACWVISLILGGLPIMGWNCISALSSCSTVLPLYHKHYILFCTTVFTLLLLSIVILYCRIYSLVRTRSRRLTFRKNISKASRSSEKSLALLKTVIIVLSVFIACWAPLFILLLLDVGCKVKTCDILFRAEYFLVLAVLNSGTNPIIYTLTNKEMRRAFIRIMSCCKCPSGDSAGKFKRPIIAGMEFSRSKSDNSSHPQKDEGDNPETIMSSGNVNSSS

Structure (SMILES) | EC50 [µM]
O=C(Nc1ccc(OC(F)F)c(Cl)c1)Nc1ccc2c(c1)OCO2 [1-(1,3-benzodioxol-5-yl)-3-[3-chloro-4-(difluoromethoxy)phenyl]urea] | 8.5
CC(C)C(c1nnnn1Cc1ccccc1)N(Cc1ccco1)Cc1cccs1 (centres undefined) [1-(1-benzyltetrazol-5-yl)-N-(furan-2-ylmethyl)-2-methyl-N-(thiophen-2-ylmethyl)propan-1-amine] | > 95
COc1ccccc1-n1nnnc1S(=O)(=O)Cc1ccc(Cl)cc1 [5-(4-chlorobenzyl)sulfonyl-1-(2-methoxyphenyl)tetrazole] | 3.77
COC(=O)c1sc(NC(=O)c2ccc(OC)cc2OC)nc1C [2-[(2,4-dimethoxybenzoyl)amino]-4-methyl-thiazole-5-carboxylic acid methyl ester] | 7.76
CCCCn1ccnc1C(=O)c1cccc(S(=O)(=O)N2c3ccccc3CC2C)c1 (centres undefined) [(1-butyl-2-imidazolyl)-[3-[(2-methyl-2,3-dihydroindol-1-yl)sulfonyl]phenyl]methanone] | 9.16
Cc1nn(C(=O)c2cccs2)c(N)c1-c1ccccc1 [(5-amino-3-methyl-4-phenyl-1-pyrazolyl)-thiophen-2-ylmethanone] | 4.9
COC(=O)c1cc(CSc2nnc(-c3ccccc3)c(-c3ccccc3)n2)oc1C [5-[[(5,6-diphenyl-1,2,4-triazin-3-yl)thio]methyl]-2-methyl-3-furancarboxylic acid methyl ester] | 1.05
CCOC(=O)c1c(C)[nH]c(C(=O)C(C)OC(=O)c2cccc(OCc3c(C)noc3C)c2)c1C (centres undefined) [MLS000054923] | 4.58
O=C(c1cc(-c2ccco2)on1)N1CCN(C(c2ccccc2)c2ccccc2)CC1 [(4-benzhydrylpiperazin-1-yl)-[5-(furan-2-yl)-1,2-oxazol-3-yl]methanone] | 5.82
CC1=NC(=O)NC(c2ccc(Cl)cc2)C1C(=O)OCc1ccc2c(c1)OCO2 (centres undefined) [1,3-benzodioxol-5-ylmethyl 4-(4-chlorophenyl)-6-methyl-2-oxidanylidene-3,4-dihydro-1H-pyrimidine-5-carboxylate] | > 0.3
O=S(=O)(NCc1ccncc1)c1ccc(Br)s1 [5-bromanyl-N-(pyridin-4-ylmethyl)thiophene-2-sulfonamide] | 2.21
COC(=O)c1ccc(OCC(O)Cn2nnc3ccccc32)cc1 (centres undefined) [4-[3-(1-benzotriazolyl)-2-hydroxypropoxy]benzoic acid methyl ester] | > 95
Cc1csc(SCC(=O)c2cc(C)n(Cc3cccs3)c2C)n1 [1-[2,5-dimethyl-1-(2-thenyl)pyrrol-3-yl]-2-[(4-methylthiazol-2-yl)thio]ethanone] | 7.01
COc1ccc(-c2nc(-c3ccc(NC(=O)c4ccncc4)cc3)no2)cc1OC [MLS000115086] | 0.685
CC(C)COC(=O)NCCOC(=O)Nc1cccc(Cl)c1 [2-(2-methylpropoxycarbonylamino)ethyl N-(3-chlorophenyl)carbamate] | 8.05
OCC12C=CC(O1)c1c2c(O)n(-c2ccccc2-c2ccccc2)c1O (centres undefined) [7-(hydroxymethyl)-2-(2-phenylphenyl)-4,7a-dihydro-3aH-octahydro-1H-4,7-epoxyisoindole-1,3-dione] | 6.82
Cc1cc(C(=O)CC#N)c(C)n1-c1ccc(OC(F)F)cc1 [3-[1-[4-(difluoromethoxy)phenyl]-2,5-dimethyl-3-pyrrolyl]-3-oxopropanenitrile] | > 30

Structure (SMILES) | EC50 [µM]
COc1ccc(-c2nc(-c3cccc(C)c3)no2)cc1OC [5-(3,4-dimethoxyphenyl)-3-(3-methylphenyl)-1,2,4-oxadiazole] | 1.07
COc1ccc(-c2noc(-c3ccccc3F)n2)cc1 [5-(2-fluorophenyl)-3-(4-methoxyphenyl)-1,2,4-oxadiazole] | 6.17
Cc1ccc(-n2ncc3c(N4CCCC(C)C4)ncnc32)c(C)c1 (centres undefined) [1-(2,4-dimethylphenyl)-4-(3-methylpiperidin-1-yl)-1H-pyrazolo[3,4-d]pyrimidine] | 8.81
O=C1C2CCCN2C(c2cccnc2)N1c1cccc(Cl)c1 (centres undefined) [2-(3-chlorophenyl)-3-(3-pyridinyl)-5,6,7,7a-tetrahydro-3H-pyrrolo[1,2-c]imidazol-1-one] | > 95
COc1cccc(N2CCN(c3ncnc4c3[nH]c3ccccc34)CC2C)c1 (centres undefined) [4-[4-(3-methoxyphenyl)-3-methyl-1-piperazinyl]-5H-pyrimido[5,4-b]indole] | 3.57
CCCc1ccc(OCc2nc(-c3ccc(NC(=O)c4ccco4)cc3)no2)cc1 [MLS000097352] | 4.08
O=S1(=O)Nc2c(ccc3cccnc23)-c2ccccc21 [5H-quinolino[8,7-c][1,2]benzothiazine 6,6-dioxide] | 3.22
Cc1cccc(NC(=O)Nc2ccc(C#N)cc2)n1 [1-(4-cyanophenyl)-3-(6-methyl-2-pyridinyl)urea] | > 30
CCc1oc2ccccc2c1C(=O)c1cc(Br)c(O)c(Br)c1 | 5.13
CN(C)c1ccnc2sc3c(=O)n(Cc4ccccc4)cnc3c12 [3-Benzyl-9-dimethylamino-3H-pyrido[3',2':4,5]thieno[3,2-d]pyrimidin-4-one] | 3.37
CCOc1ccc(-c2nnc(-c3cccs3)o2)cc1OCC [2-(3,4-Diethoxy-phenyl)-5-thiophen-2-yl-[1,3,4]oxadiazole] | 5.58
Cc1ccc(OCc2nc(-c3ccccc3)no2)c(C)c1 [5-[(2,4-dimethylphenoxy)methyl]-3-phenyl-1,2,4-oxadiazole] | 1.96
Cc1nn(Cc2ccc(Cl)c(Cl)c2)c(C)c1NC(=O)c1cc(CC(C)C)on1 [MLS000116412] | 9.37
Nc1nonc1C(=O)NCCNCc1cc(Br)ccc1OCc1ccc(F)cc1 [4-amino-N-[2-[[5-bromo-2-(4-fluorobenzyl)oxy-benzyl]amino]ethyl]furazan-3-carboxamide;hydrochloride] | 7.81
Oc1ccc(-c2nnc(-c3ccc(O)cc3)nn2)cc1 [4,4'-(1,2,4,5-tetrazine-3,6-diyl)diphenol] | > 10
O=C(Nc1ccc(N2CCCCC2)c(Cl)c1)c1nnc[nH]1 | 0.879
CCOc1ccc(C2CC(c3cccc(OC)c3OC)n3nnnc3N2)cc1Cl (centres undefined) [5-(3-chloranyl-4-ethoxy-phenyl)-7-(2,3-dimethoxyphenyl)-1,5,6,7-tetrahydro-[1,2,3,4]tetrazolo[1,5-a]pyrimidine] | 68.9

Same assay, conditions: inactive by the depositor's call

Structure (SMILES) | EC50 [µM]
Cc1ccc(OCCn2cc(C(=N)NO)c3ccccc32)cc1C [1-[2-(3,4-dimethylphenoxy)ethyl]-N'-hydroxy-1H-indole-3-carboximidamide] | 11.2
CC(=O)c1sc(NC(=O)C2(F)C(F)(F)C(F)(F)C(F)(F)C(F)(F)C2(F)F)nc1C [MLS000040071] | 31.1
COc1cccc(-c2cc(C(=O)Nc3ccccc3SC)no2)c1 [5-(3-methoxyphenyl)-N-(2-methylsulfanylphenyl)-1,2-oxazole-3-carboxamide] | 16
CCCCCn1c(=O)c(C(=O)NCc2ccncc2)c(O)c2ccccc21 [1-amyl-2-hydroxy-4-keto-N-(4-pyridylmethyl)quinoline-3-carboxamide] | 24.4
O=C(Nc1ccc(C(F)(F)F)cc1)C1CCCN1S(=O)(=O)c1cccc2cccnc12 (centres undefined) [1-(8-quinolinylsulfonyl)-N-[4-(trifluoromethyl)phenyl]-2-pyrrolidinecarboxamide] | 10.2
CN1CCN(C(=O)CSc2nc(-c3cccs3)cc(-c3cccs3)c2C#N)CC1 [2-[2-(4-methylpiperazin-1-yl)-2-oxidanylidene-ethyl]sulfanyl-4,6-dithiophen-2-yl-pyridine-3-carbonitrile] | 12.9
Cc1ccc(S(=O)(=O)Nc2ccc3ncccc3c2)cc1 [4-methyl-N-(6-quinolinyl)benzenesulfonamide] | 10.7
Cc1nc2ncnn2c(N2CCN(c3cccc(C(F)(F)F)c3)CC2)c1C [5,6-Dimethyl-7-[4-(3-trifluoromethyl-phenyl)-piperazin-1-yl]-[1,2,4]triazolo[1,5-a]pyrimidine] | 15.4
COc1ccc(-c2nc(-c3cccc(C(F)(F)F)c3)no2)cc1OC [5-(3,4-dimethoxyphenyl)-3-[3-(trifluoromethyl)phenyl]-1,2,4-oxadiazole] | 18.8
CSc1ccc(S(=O)(=O)Nc2ccc3c(c2)OCCO3)cc1 [MLS000115922] | 18
C=CCn1c(C)cc(C(=O)CSc2nc3ccccc3o2)c1C [1-(1-allyl-2,5-dimethyl-pyrrol-3-yl)-2-(1,3-benzoxazol-2-ylthio)ethanone] | 10.3
Cc1ccc2nc(NC(=O)CSc3nc4c(c(=O)n3C)SC(C)C4)sc2c1 (centres undefined) [2-[(3,6-dimethyl-4-oxidanylidene-6,7-dihydrothieno[3,2-d]pyrimidin-2-yl)sulfanyl]-N-(6-methyl-1,3-benzothiazol-2-yl)ethanamide] | 16.5
CC/N=c1\sc(C(=O)NCCc2ccccc2)cc(=O)n1CC [3-Ethyl-2-[(Z)-ethylimino]-4-oxo-3,4-dihydro-2H-[1,3]thiazine-6-carboxylic acid phenethyl-amide] | 23.1
Clc1ccc(CSc2nnc(-c3ccncc3)o2)c(Cl)c1 [2-[(2,4-dichlorobenzyl)thio]-5-(4-pyridyl)-1,3,4-oxadiazole] | 38.5
CCC(C)c1ccc2oc(-c3ccc(NC(=O)c4nnc[nH]4)cc3)nc2c1 (centres undefined) [N-[4-(5-sec-butyl-1,3-benzoxazol-2-yl)phenyl]-1H-1,2,4-triazole-3-carboxamide] | 12.7
COc1ccccc1-c1nc(-c2ccc(Br)cc2)no1 [3-(4-bromophenyl)-5-(2-methoxyphenyl)-1,2,4-oxadiazole] | 10.1
CC(=O)c1ccc(N2CCN(c3ccc(C(F)(F)F)cn3)CC2)cc1 [1-[4-[4-[5-(trifluoromethyl)-2-pyridinyl]-1-piperazinyl]phenyl]ethanone] | 37
Cc1ccc(S(=O)(=O)n2nc(C)c(Br)c2C)c(C)c1C [4-bromanyl-3,5-dimethyl-1-(2,3,4-trimethylphenyl)sulfonyl-pyrazole] | 83.1
Clc1ccc(-c2nc3nc4ccccc4nc3n2Cc2ccco2)cc1 [2-(4-chlorophenyl)-3-(2-furanylmethyl)imidazo[4,5-b]quinoxaline] | 16.6
O=C1CC(N2CCN(C/C=C/c3ccccc3)CC2)C(=O)N1CCc1ccccc1 (centres undefined) [1-(2-phenylethyl)-3-[4-[(E)-3-phenylprop-2-enyl]-1-piperazinyl]pyrrolidine-2,5-dione] | 19.3
